pKi: −log10 of the molar value.
Columns and labels:
OATP1B1 [1] = target: T1, OATP1B1 (Homo sapiens, UniProt Q9Y6L6, N130D); experiment: OATP1B1 inhibition, conventional RI method (radiolabeled estradiol-17β-D-glucuronide)
T1 sequence (Q9Y6L6 1-691 N130D): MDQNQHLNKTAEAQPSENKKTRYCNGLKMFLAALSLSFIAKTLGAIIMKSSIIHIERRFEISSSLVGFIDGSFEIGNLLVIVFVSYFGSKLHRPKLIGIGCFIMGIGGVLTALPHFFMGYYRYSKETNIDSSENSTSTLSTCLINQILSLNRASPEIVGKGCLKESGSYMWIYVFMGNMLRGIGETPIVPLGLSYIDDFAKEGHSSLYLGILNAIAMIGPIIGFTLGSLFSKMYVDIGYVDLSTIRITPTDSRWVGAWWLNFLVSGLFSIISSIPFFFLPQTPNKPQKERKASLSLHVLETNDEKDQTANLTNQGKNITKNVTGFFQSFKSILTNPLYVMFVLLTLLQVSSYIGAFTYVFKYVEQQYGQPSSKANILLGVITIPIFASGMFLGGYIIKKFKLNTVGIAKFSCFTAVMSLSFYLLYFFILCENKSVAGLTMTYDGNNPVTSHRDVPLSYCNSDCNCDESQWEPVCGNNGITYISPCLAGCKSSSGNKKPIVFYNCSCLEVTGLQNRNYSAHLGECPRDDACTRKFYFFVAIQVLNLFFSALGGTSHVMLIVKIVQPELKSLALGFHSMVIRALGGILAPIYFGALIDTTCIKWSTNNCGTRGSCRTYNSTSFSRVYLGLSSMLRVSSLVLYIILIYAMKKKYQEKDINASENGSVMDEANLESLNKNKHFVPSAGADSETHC
Protocol: In the conventional RI method, radiolabeled estradiol-17β-D-glucuronide (EG) was used. […] Subsequently, the cells were washed with an ice-cold KH buffer three times and then solubilized with an aqueous 0.1 N NaOH solution, and after neutralization with an aqueous 1 N HCl solution, the radioactivity taken up by the cells was measured.

OATP1B1 [2] = target: T1, OATP1B1; experiment: OATP1B1 inhibition, DCF method (fluorescent substrate)
OATP1B1 [3] = target: T1, OATP1B1; experiment: Effect of known OATP inhibitors on OATP1B1-mediated uptake of DCF; details: DCF 3 μM, inhibitor 10 and 30 μM
OATP1B1 [4] = target: T1, OATP1B1; experiment: Time profiles of the uptake of DCF by OATP1B1; format: in vitro ADME; set-up: Expression vectors, pcDNA3.1 vectors (Invitrogen Corporation), carrying the resulting genes were respectively introduced into HEK-293 cells; expressed in transfected cells; host or cells: HEK-293 cells, pcDNA3.1 vector, hygromycin selection; details: 0.1, 1 and 10 μM DCF, 37° C., 1 to 30 min
Protocol: The cells were sampled at the incubation times of 1 min, 5 min, 10 min, and 30 min, washed with an ice-cold KH buffer three times, and then solubilized with an aqueous 0.1 N NaOH solution, and the fluorescence intensity of the fluorescent dye taken up by the cells was measured as in Example 1 (excitation wavelength: 490 nm, fluorescence wavelength: 515 nm).

human hepatocytes [5] = system: human hepatocytes
Protocol: (§1) Human hepatocytes were prepared as in Example 6, and a hepatocyte suspension was prepared at 1×10^6 cells/mL.

human hepatocytes [6] = experiment: Time/temperature-dependent uptake of DCF by human hepatocytes; format: in vitro ADME; details: 37° C. versus 4° C., 0.5 to 5 min, cryopreserved human hepatocytes
Protocol: Cryopreserved human hepatocytes and cryopreserved hepatocytes recovery medium (CHRM) were purchased from Invitrogen Corporation. The cryopreserved human hepatocytes were thawed in a water bath at 37° C. and were added to the CHRM prewarmed at 37° C. After centrifugation at room temperature, the supernatant was discarded, and a hepatocyte suspension at 1×10^6 cells/mL was prepared in ice-cold KH buffer and stored on ice. […] The hepatocytes were incubated at 37° C. and 4° C., respectively, for 0 to 5 minutes. […] Specifically, 80 μL of the hepatocyte suspension was collected and added to a centrifugal tube containing 50 μL of oil (specific gravity: 1.015, Sigma-Aldrich Co.) and 100 μL of an aqueous 2 N NaOH solution under the oil layer, and centrifugation was performed at 10,000 g for 20 seconds. By the centrifugation, the hepatocytes passed through the oil layer and were solubilized with an aqueous 2 N NaOH solution.

OAT3 = target: T2, OAT3 (Homo sapiens, UniProt Q8TCC7); experiment: Substrate specificity of fluorescein derivatives on OAT3 (same method); details: FIG. 1(b), same method as Example 1
T2 sequence (Q8TCC7 1-542): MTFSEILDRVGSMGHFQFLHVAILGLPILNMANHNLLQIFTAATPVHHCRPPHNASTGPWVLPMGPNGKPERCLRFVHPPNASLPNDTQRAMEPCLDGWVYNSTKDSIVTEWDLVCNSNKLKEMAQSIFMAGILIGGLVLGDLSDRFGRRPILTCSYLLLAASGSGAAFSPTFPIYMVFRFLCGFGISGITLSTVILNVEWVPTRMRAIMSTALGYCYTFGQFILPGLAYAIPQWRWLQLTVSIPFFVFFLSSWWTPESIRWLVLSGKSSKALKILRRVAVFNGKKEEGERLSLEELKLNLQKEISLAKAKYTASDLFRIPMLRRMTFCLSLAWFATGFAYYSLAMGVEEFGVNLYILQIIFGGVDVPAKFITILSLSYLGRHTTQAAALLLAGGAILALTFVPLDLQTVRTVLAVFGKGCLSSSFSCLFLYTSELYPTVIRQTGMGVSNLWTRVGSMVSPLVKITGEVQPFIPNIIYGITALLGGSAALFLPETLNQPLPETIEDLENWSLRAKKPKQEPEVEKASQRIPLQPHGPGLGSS
Protocol: The above cells were seeded in a poly-D-lysine-coated dish at 4×10^5 cells/well. The medium was replaced with a KH buffer, and various fluorescent dyes dissolved in DMSO were added to the respective HEK-293 cells such that the final concentration in the KH buffer was 1 μM, followed by incubation at 37° C. for 5 minutes. Subsequently, the cells were washed with an ice-cold KH buffer three times and were then solubilized with an aqueous 0.1 N NaOH solution, and the fluorescence intensity of the fluorescent dye taken up by the cells was measured (excitation wavelength: 490 nm, fluorescence wavelength: 515 nm).
In order to quantitatively measure the amount of fluorescent compound taken up by the cells, a calibration curve showing the fluorescence intensity per unit fluorescent compound was prepared in advance. Based on this calibration curve, the measured fluorescence intensity was converted into the fluorescent compound per well (pmol/well or μL/well), which was divided by the total protein amount (mg protein/well) of the solubilized cells (standardization) to convert into the fluorescent compound amount per unit protein (pmol/mg protein or μL/mg protein).

OATP1B1 [7] = target: T1, OATP1B1; experiment: Substrate specificity of fluorescein derivatives: uptake by HEK-293 cells forcedly expressing OATP1B1; format: in vitro ADME; set-up: Expression vectors, pcDNA3.1 vectors (Invitrogen Corporation), carrying the resulting genes were respectively introduced into HEK-293 cells; expressed in transfected cells; host or cells: HEK-293 cells, pcDNA3.1 vector, hygromycin selection; details: 1 μM dye, 37° C., 5 minutes, compared with OATP1B3 and OATP2B1
Protocol: Complementary DNAs of OATP1B1, OATP1B3, and OATP2B1 (respectively shown by SEQ ID NOs: 2, 3, and 4) were cloned by RT-PCR using human liver total RNA (Invitrogen Corporation) as a template and the following primers: […]
Expression vectors, pcDNA3.1 vectors (Invitrogen Corporation), carrying the resulting genes were respectively introduced into HEK-293 cells by lipofection using Lipofectamin 2000 (Invitrogen Corporation). The cells were cultured in Hygromycin-containing selective media to produce HEK-293 cells forcedly expressing OATP1B1, OATP1B3, and OATP2B1, respectively.

OATP1B1 [8] = target: T1, OATP1B1
Protocol: The Km and Vmax were calculated by the following Michaelis-Menten equation. […] Each parameter represents the mean value of four independent experiments.

human hepatocytes [9] = experiment: Effect of OATP inhibitors on DCF uptake by human hepatocytes; details: inhibitor final 10 μM, 37° C.; reduced to the level comparable to the uptake at 4° C.
Protocol: as §1

[10] = read-out: Ki (EG), substrate radiolabeled EG 0.01 μM, HEK-293 cells forcedly expressing OATP1B1, 37° C., 5 minutes
[11] = read-out: Ki (DCF), substrate DCF 3 μM, HEK-293 cells forcedly expressing OATP1B1, 37° C., 5 minutes

## CN/C(=N/CCSCc1nc[nH]c1C)NC#N [Cimetidine]
OATP1B1 [1]
  pKi: < 3.52
OATP1B1 [2]
  pKi: < 3.52

## CC(=O)N1CCN(c2ccc(OCC3COC(Cn4ccnc4)(c4ccc(Cl)cc4Cl)O3)cc2)CC1 (stereo not drawn) [Ketoconazole]
OATP1B1 [1]
  pKi: 4.91
OATP1B1 [2]
  pKi: 4.81

## C[C@]12CC[C@@H]3c4ccc(OS(=O)(=O)O)cc4CC[C@H]3[C@@H]1CCC2=O [ES, estrone-3-sulfate]
OATP1B1 [1]; [10]
  pKi: 7.11
OATP1B1 [3]
  concentration dependence of inhibition of OATP1B1-mediated DCF uptake: inhibition depends on the concentrations
OATP1B1 [2]; [11]
  pKi: 7.10

## C=CC[C@@H]1/C=C(\C)C[C@H](C)C[C@H](OC)[C@H]2O[C@@](O)(C(=O)C(=O)N3CCCC[C@H]3C(=O)O[C@H](/C(C)=C/[C@@H]3CC[C@@H](O)[C@H](OC)C3)[C@H](C)[C@@H](O)CC1=O)[C@H](C)C[C@@H]2OC [Tacrolimus]
OATP1B1 [1]
  pKi: 6.05
OATP1B1 [2]
  pKi: 5.90

## CC[C@H]1OC(=O)[C@H](C)[C@@H](O[C@H]2C[C@@](C)(OC)[C@@H](O)[C@H](C)O2)[C@H](C)[C@@H](O[C@@H]2O[C@H](C)C[C@H](N(C)C)[C@H]2O)[C@](C)(O)C[C@@H](C)C(=O)[C@H](C)[C@@H](O)[C@]1(C)O [Erythromycin]
OATP1B1 [1]
  pKi: 5.38
OATP1B1 [2]
  pKi: 5.16

## CO[C@H]1/C=C/O[C@@]2(C)Oc3c(C)c(O)c4c(O)c(c(/C=N/N5CCN(C)CC5)c(O)c4c3C2=O)NC(=O)/C(C)=C\C=C\[C@H](C)[C@H](O)[C@@H](C)[C@@H](O)[C@@H](C)[C@H](OC(C)=O)[C@@H]1C [Rifampicin, rifampicin]
OATP1B1 [1]
  pKi: 6.54
OATP1B1 [2]
  pKi: 6.59

## C[C@]12CC[C@@H]3c4ccc(O)cc4CC[C@H]3[C@@H]1CC[C@@H]2O[C@@H]1O[C@H](C(=O)O)[C@@H](O)[C@H](O)[C@H]1O [estradiol-17β-D-glucuronide]
OATP1B1 [3]
  concentration dependence of inhibition of OATP1B1-mediated DCF uptake: inhibition depends on the concentrations

## O=C1OC2(c3cc(Cl)c(O)cc3Oc3cc(O)c(Cl)cc32)c2ccccc21 [DCF, Dichlorofluorescein]
OATP1B1 [4]
  uptake amount of DCF by HEK-293 cells forcedly expressing OATP1B1: increases over time and depends on the concentration of added DCF
Human hepatocytes [5]
  Km: 38.6 µM
Human hepatocytes [6]
  transporter-mediated uptake of DCF by human hepatocytes: increases over time
OAT3
  substrate for OAT3: not a satisfactory substrate
OATP1B1 [7]
  uptake of fluorescent dye among the combinations of fluorescent dye and transporters tested: highest uptake
OATP1B1 [8]
  Km: 7.22 µM

## O=C1OC(c2ccc(O)c(S(=O)(=O)O)c2)(c2ccc(O)c(S(=O)(=O)O)c2)c2c(Br)c(Br)c(Br)c(Br)c21 [BSP, bromosulfophthalein]
Human hepatocytes [9]
  DCF uptake by human hepatocytes in presence of inhibitor: reduced
OATP1B1 [1]; [10]
  pKi: 7.14
OATP1B1 [2]; [11]
  pKi: 7.04

## C[C@H](CCC(=O)NCCS(=O)(=O)O)[C@H]1CC[C@H]2[C@@H]3[C@H](O)C[C@@H]4C[C@H](O)CC[C@]4(C)[C@H]3C[C@H](O)[C@]12C [Taurocholic acid]
OATP1B1 [1]
  pKi: 4.76
OATP1B1 [2]
  pKi: 5.06

## CN(Cc1cnc2nc(N)nc(N)c2n1)c1ccc(C(=O)N[C@@H](CCC(=O)O)C(=O)O)cc1 [Methotrexate]
OATP1B1 [1]
  pKi: < 3.52
OATP1B1 [2]
  pKi: < 3.52
